Test results as given in US8506964B2, “Fusion proteins and related compositions, methods and systems for treatment and/or prevention of atherosclerosis” (priority 2010, dated 2013).

Assays:
[1] = test system: apo E −/− mice; experiment: Subcutaneous immunization of apo E −/− mice with peptide test articles, plaque size in en face aorta; assay type: in vivo
Description: Inhibition of atherosclerosis in apo E −/− mice by immunization with fifteen different test articles based on fifteen different peptide fragments of apo B was investigated.
In these experiments, apo E −/− mice received primary subcutaneous immunization at 6-7 weeks of age, followed by two boosters administered […]. The mice were fed a high cholesterol diet from 1 week after the second injection (10 weeks of age) and continued until sacrifice at 25 weeks of age. The effect of immunization on atherosclerosis formation was assessed by measuring plaque size (percent area stained with Oil Red O) in an en face preparation of the aorta.
Based on the results from these and other experiments, four peptides were identified as particularly effective in reducing the progression of atherosclerosis.

[2] = test system: mouse LDL; experiment: ELISA of sera for antibodies to mouse LDL; assay type: in vivo; details: parenteral immunization; data not shown
Description: ELISA methods were used to quantitate serum Ig isotypes specific for the apoB-100 peptide as well as total IgG and IgM as previously described (ref. 19). Sera from immunized mice were tested for antibodies to mouse LDL by incubation (1/50, 1/150 and 1/450 dilutions) in plates coated with mouse LDL (10 μg/ml) and using alkaline phosphatase-conjugated anti-mouse-IgG as detector antibody. Sera from C57BL/6 mice immunized with OVA-CTB were assayed for reactivity to mouse or human LDL, or to apoB100, at dilutions of 1/25, 1/250 and 1/2500.

[3] = subcutaneous immunization at 6-7 weeks, boosters 3 and 5 weeks later, high cholesterol diet, plaque size (percent area Oil Red O) at 25 weeks

Substance | Reduction in atherosclerosis progression [1, 3] | other results
ATRFK HLRKY TYNYE AESSS (ATRFKHLRKYTYNYEAESSS; Apolipoprotein B-100; UniProt P04114 43-62, looked up, fragment) [Peptide P2] | (−42%, p < 0.05) | 
IEIGL EGKGF EPTLE ALFGK (IEIGLEGKGFEPTLEALFGK) [Peptide P45] | (−53%, p < 0.05) | 
KTTKQ SFDLS VKAQY KKNKH (KTTKQSFDLSVKAQYKKNKH) [Peptide P210] | (−49%, p = 0.06) | 
SLTST SDLQS GIIKN TASLK [Peptide P102] |  | Reduction in atherosclerosis progression ([1]; mouse, in vivo, sc): (−52%, p < 0.05)
ovalbumin |  | IgG antibody responses to mouse LDL [2]: did not lead to induction of significant IgG antibody responses
